Results on twelve compounds are retold here after patent US4279897A, “(Alkoxycarbonyl)(alkyl)aminosulfenyl derivatives of phosphoramidothioate esters” (priority 1979, dated 1981).

Each structure is given as a SMILES string.

Data set [1] relates to house flies, Musca domestica. As to the kind of experiment: Topical insecticidal activity against house flies (percent mortality 24 h after application, LD50). The data set is classed as in vivo. To be noted: read-out: House fly LD50. The procedure: Representative compounds of the invention were tested for insecticidal activity against house flies, Musca domestica. Stock 1% concentrated solutions of each of the test compounds were made in acetone, and such solutions diluted with acetone to a concentration of 0.001-0.1%. House flies were treated topically on the notum by 1 μl of each of the diluted acetone solutions and percent mortality was counted 24 hours after application.

A short description of data set [2]: Mammalian toxicity, oral, Swiss white mice (LD50). In kind it is in vivo. The conditions noted are these: mouse, in vivo; oral, corn oil carrier, Swiss white mice. The procedure: (§1) Mammalian toxicity was determined against Swiss white mice. The test compound was applied orally using corn oil as the carrier.
For data set [3], the system named is Swiss white mice. As to the kind of experiment: Mammalian toxicity, oral, Swiss white mice (LD50). In kind it is in vivo. The conditions noted are these: mouse oral, from Table II. The procedure: as §1
A short description of data set [4]: Water solubility. In kind it is physicochemical.
Data set [5] deals with insects. To be noted: in vivo; cited from earlier work.
Data set [6] relates to mammals. The conditions noted are these: in vivo; cited from earlier work.

Consider `CCN(SNP(=O)(OC)SC)C(=O)OC` (centres unmarked) [Compound 1, O,S-dimethyl N-(N'-methoxycarbonyl-N'-ethylaminosulfenyl)phosphoramidothioate], for which the LD50 in data set [1] was 2.8 mg/kg; in data set [2], 30 mg/kg.

Consider `CCCCCCOC(=O)N(CC)SNP(=O)(OC)SC` (centres unmarked) [Compound 2], for which the LD50 in data set [1] came to 3.8 mg/kg; in data set [2] it was 34 mg/kg.

For the compound `CCCN(SNP(=O)(OC)SC)C(=O)OC` (centres unmarked) [Compound 3], the LD50 in data set [1] stood at 1.6 mg/kg.

Turning to `CCCN(SNP(=O)(OC)SC)C(=O)OCC` (centres unmarked) [Compound 4], the LD50 in data set [1] stood at 2 mg/kg.

For `CCCOC(=O)N(CCC)SNP(=O)(OC)SC` (centres unmarked) [Compound 5], the LD50 came out at 1.9 mg/kg in data set [1] and 36 mg/kg in data set [2].

Consider `CCOC(=O)N(SNP(=O)(OC)SC)C(C)C` (centres unmarked) [Compound 6, O,S-Dimethyl N-[N'-(ethoxycarbonyl)-N'-(isopropylaminosulfenyl)]phosphoramidothioate], for which the 50% lethal dose (LD50) in data set [1] worked out at 1.9 mg/kg; in data set [2], 50 mg/kg. Also, the “mammalian toxicity compared with methamidophos” value in data set [3] is “lower”.

Regarding `COP(=O)(NSN(C(=O)OC(C)C)C(C)C)SC` (centres unmarked) [Compound 7, O,S-Dimethyl N-[N'-(isopropoxycarbonyl)-N'-(isopropylaminosulfenyl)]phosphoramidothioate], the LD50 in data set [1] came out at 2.7 mg/kg.

In the case of `CCCOC(=O)N(SNP(=O)(OC)SC)C(C)C` (centres unmarked) [Compound 8, O,S-dimethyl N-(N'-propoxycarbonyl-N'-isopropylaminosulfenyl)phosphoramidothioate], the 50% lethal dose (LD50) was found to be 2.5 mg/kg in data set [1] and 50 mg/kg in data set [2]. Besides, the “mammalian toxicity compared with methamidophos” value in data set [3] is on record as “lower”.

Consider `CCOC(=O)N(SNP(=O)(OC)SC)C(C)(C)C` (centres unmarked) [Compound 9, O,S-Dimethyl N-[N'-(ethoxycarbonyl)-N'-(tert.-butylaminosulfenyl)]phosphoramidothioate], for which the figures for the LD50 in data set [1] and in data set [2] were 2.5 mg/kg and 50 mg/kg, respectively. In data set [3], the “mammalian toxicity compared with methamidophos” value was “lower”.

Regarding `CCCOC(=O)N(SNP(=O)(OC)SC)C(C)(C)C` (centres unmarked) [Compound 10], the LD50 came out at 1.6 mg/kg in data set [1] and 50 mg/kg in data set [2]. The “mammalian toxicity compared with methamidophos” value in data set [3] was “lower”.

`COP(N)(=O)SC` (centres unmarked) [Methamidophos, O,S-dimethyl phosphoramidothiote]: the water solubility result in data set [4] is “freely soluble in water”. The “insecticidal activity / toxicity to insects (background)” value in data set [5] was “high toxicity to both insects and mammals”. Also, in data set [6], the “mammalian toxicity (background)” value was “high toxicity to both insects and mammals”.

As to `COP(=O)(NC(C)=O)SC` (centres unmarked) [acephate], the “insecticidal activity / toxicity to insects (background)” value in data set [5] is given as “high insecticidal activity”. For the same compound, the “mammalian toxicity (background)” value in data set [6] is “relatively low mammalian toxicity”.

Usually LD50 stands for the dose expected to kill half of the subjects tested.
